Data reported in US8563578B2, “Antitumor properties of NO modified protease inhibitors” (Onconox APS, priority 2008, dated 2013).

Key:
B16 cells [1] = assay: Cyclin D3 and p53 expression (cELISA, immunocytochemistry, Western blot), B16; format: cell-based, mouse; settings: 18.8 μM, 24 h (Western blot 4 h)
Text: (§1) A slightly modified method for cell-based ELISA (cELISA) by Versteeg (Versteed et al., 2000) was used to measure the expression of galactocerebroside, glial fibrilar acidic protein (GFAP), myelin basic protein (MBP), cyclin D3, p53 and p-AKT. Briefly, at the end of cultivation period cells were fixed in 4% paraformaldehyde, endogenous peroxydase was quenched with 1% H2O2 in PBS containing 0.1% Triton X-100 (PBST), and unspecific binding of antibodies blocked with PBST solution containing 10% FCS. […] The absorbance at 450 nm was measured in an automated microplate reader 15 min after incubation with peroxydase substrate TMB and subsequently to addition of 0.1 M HCl. To facilitate comparison between treatments, the obtained absorbances were corrected for the cell number that was determined by crystal violet staining, as described in the original protocol.
(§2) The detection of expression of cyclin D3 and p53 expression was performed by the immunocytochemical procedure as previously described (Mijatovic et al, 2005). The cells were cultivated in glass chamber-slides (3×10^4 cells/well) and cyclin D3 and p53 expression were detected with specific antibodies against cyclin D3 (1:1000, Santa Cruz Biotechnology, Santa Cruz, Calif.) and p53 (1:500, Santa Cruz Biotechnology, Santa Cruz, Calif.). […]

B16 cells [2] = assay: Cell proliferation by CFSE staining, B16; format: cell-based, mouse; settings: 18.8 μM, 48 h, B16 cells which survived the treatment
Experimental: Rate of cell proliferation was verified by flow cytometric analysis of cells labelled with CFSE (Kang et al. 2005). CFSE dye is stable in cytoplasm more than 15 generations and the intensity of fluorescence decline after each division. Briefly, detached cells were stained with 1.5 μM CFSE for the 15 min at 37° C., washed 2 times, seeded in 6-well plates at 2×10^5 cells/well and then exposed to drugs. After 24 and 48 h of cultivation cells were trypsinized and washed 2 times. Finally, the cells were resuspended in PBS and analyzed by flow cytometry. Green fluorescence emission was measured with a FACSCalibur (BD, Heidelberg, Germany) and analyzed using CellQuest software.
FIG. 4. […] Results are calculated as indicated in materials and methods and presented as mean±SD from representative of three independent experiment (*p <0.05). […] After 24 h of cultivation without or with drugs, cells were stained with AO orange (B) or PI (C) and analyzed by flow cytometry. The data are presented as mean±SD from three independent experiments. *p<0.05, refers to untreated cultures. […] Cells were incubated with 18.8 μM of Sag or Saq-NO2 for 24 h. After that, the drugs were either removed or not from the cells and incubated for additional 24 h. Cell viability was determined by CV test after 24 and 48 h of incubation (right panels). […]

B16 cells [3] = assay: MBP expression by cell-based ELISA, B16; parameters: species or system mouse; settings: 18.8 μM, 24 h
Text: as §1, with “protocol. […]” for “protocol.”
FIG. 5. […] Cell morphology was assessed by light microscopy (A). Markers of cell differentiation of C6 and B16 cells, galactocerebroside, GFAP and MBP were determined by cELISA and melanin and tyrosinase activity were determined as described in material and methods (B). Cyclin D3 and p53 expression were evaluated by cELISA (C, upper panels), immunocytochemistry (C, middle panel) and Western blot (C, lower panel). […]

C6 cells = assay: Cyclin D3 and p53 expression (cELISA, immunocytochemistry, Western blot), C6; format: cell-based, rat; settings: 18.8 μM, 24 h (Western blot 4 h)
Text: as §1, §2

## CC(C)(C)NC(=O)[C@@H]1C[C@@H]2CCCC[C@@H]2CN1C[C@@H](O[N+](=O)[O-])[C@H](Cc1ccccc1)NC(=O)[C@H](CC(N)=O)NC(=O)c1ccc2ccccc2n1 [Saq-NO2, nitric ester of Saquinavir]
B16 cells [1]
  cyclin D3 expression: not considerably changed
  p53 expression: much higher extent than Saq
B16 cells [2]
  dividing potential: decreased dividing potential
B16 cells [3]
  MBP expression: mild elevation
C6 cells
  cyclin D3 expression: not considerably changed
  p53 expression: much higher extent than Saq
